{"source": "patent US20260182575A1", "about": "“MOLECULES HAVING PESTICIDAL UTILITY AND INTERMEDIATES AND PROCESSES RELATED THERETO” (CORTEVA AGRISCIENCE LLC, priority 2022, published 2026)", "format_in_all_cases": "in vivo", "key": {"[1]": {"test_system": "Fall Armyworm (Spodoptera frugiperda, LAPHFR, FAW)", "test": "Bioassay 4: fall armyworm, artificial diet, 128-cell tray", "details": "AI alone", "in_short": "(§1)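 Test solutions (0.0000004–0.04% w/v, i.e. 0.00005–5 μg/cm² on diet) were pipetted onto artificial lepidopteran diet and one 2nd-instar larva was placed per cell, 8 replicates per species, held at ~26° C. Live larvae were counted after 5 days; percent control used Abbott's correction against a solvent check.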"}, "[2]": {"test_system": "Western Flower Thrips (Frankliniella occidentalis, FRANOC, WFT)", "test": "Bioassay 3: western flower thrips, cotton leaf disc dip", "details": "3 days", "description": "Stock solutions of F1 and various active ingredients were prepared initially at a concentration of 0.1 mg/mL using acetone as a diluent. Stock solutions were prepared with F1 as well as for each of the active ingredients individually. Test solutions were prepared from the stock solutions. Test solutions were prepared containing F1, the individual active ingredients, and mixtures of F1 with each of the active ingredients. The test solutions for F1 and the individual active ingredients were prepared by adding 500 μL of stock solution to a 25 mL glass vial, then adding 500 μL of acetone, followed by the addition of 9 mL water with 0.025% Tween® 20 to create a 0.0005% (w/v) solution. The test solutions containing mixtures of F1, and the individual active ingredients were prepared by adding 500 μL of the active ingredient stock solution to a 25 mL glass vial, followed by 500 μL of the F1 stock solution, then by the addition of 9 mL water with 0.025% Tween® 20 to create a test solution containing 0.0005% (w/v) F1 and 0.0005% (w/v) of the active ingredient. Each test solution was serially diluted to create desired doses of test solutions (0.0005% (w/v), 0.000125% (w/v), 0.00003125% (w/v), 0.0000078% (w/v), and 0.00000195% (w/v)).\nThe test solutions were tested against WFT using the following procedure: Leaf discs (2.7 cm in diameter) were cut from the true leaves of cotton plants. Leaf discs were dipped into the test solutions and shaken to ensure complete coverage of the leaf disc and then placed in Millipore® PetriSlides containing a filter paper disc. Treated leaf discs were air dried for approximately 1 hour. Each leaf disc was infested with 5 WFT (9-10-day old nymphs) by placement on each leaf disc, and the PetriSlides were capped to prevent escape. Each treatment was replicated three times and the test treatments were held at approximately 26° C. and ambient relative humidity (RH) prior to grading. Reference discs (solvent check) were treated with the diluent only. Evaluation was conducted by counting the number of live WFT under magnification 3 days after treatment. Percent control was measured using Abbott's correction formula (W. S. Abbott, J. Econ. Entomol. 18 (1925), pp. 265-267) as follows:\nwhere X=No. of live nymphs on solvent check leaf discs and Y=No. of live nymphs on treated leaf discs. In Table B3 the “Expected % Control” was calculated using the method described in Colby S. R., Weeds, 1967, 15, 20-22. Bioassay 4: Corn Earworm (Helicoverpa zea, HELIZE, “CEW”), Fall Armyworm (Spodoptera frugiperda, LAPHFR, “FAW”), and Soybean Looper (Chrysodeixis includens, PSEPIN, “SBL”)."}, "[3]": {"test_system": "Brown Planthopper (Nilaparvata lugens, NILALU, BPH)", "test": "Bioassay 6: brown planthopper, sprayed rice seedlings", "details": "AI alone, AI Rate 0.049 g/ha, 6 days", "description": "At these rates, F1 and the individual active ingredients were tested at a ratio of 1:1. […] F1 and triflumezopyrim were tested at a ratio of 16:1. Test solutions were prepared containing F1, the individual active ingredients, and mixtures of F1 with each of the active ingredients. Test solutions were prepared by weighing 5 mg of each test chemistry (either alone or in combination depending on the treatment) into a 25 mL glass vial. Next, 1 mL of acetone was added to each vial to dissolve the test chemistries, followed by 19 mL of water with 0.125% Tween 20 adjuvant. This test solution represented the 50 g/ha treatment, which was then serially diluted four-fold to create the three lower rates of 12.5, 3.125, and 0.78 g/ha. Triflumezopyrim was prepared in a similar manner, but two additional serial dilutions were conducted to create solutions representing 6 rates of 12.5, 3.125, 0.78, 0.19, 0.049, and 0.012 g/ha. The higher two doses were discarded, and the four lower doses were used for testing. Each rate was replicated four times, and solvent blanks were used as control treatments.\nFive (5) rice seedlings (10-12 days old) planted in 3-inch pots were used as test plants. Rice seedlings were grown in soil and the soil was covered with a 2% agar solution. The test solutions were applied to test plants using a Devries laboratory research sprayer, set to spray at 200 liters per hectare (L/ha) using a TeeJet hollow cone nozzle. Following application, the rice seedlings were dried for 1 hour, after which a single clear plastic tube (2 inches in diameter×12 inches in height) was placed over the seedlings in each pot. The tube was pushed down into the agar to create a sealed test chamber. The agar prevented insects from hiding in the soil and made adult collection and grading easier. Ten to fifteen (10-15) 5th instar BPH nymphs were transferred to each test chamber using a vacuum aspirator. Immediately following BPH infestation, the test chamber was covered with a piece of grade 90 cheesecloth and secured with a rubber band, sealing the test chamber. The test chambers were held at 25° C. for 6 days, after which the total number of live insects was counted in each test chamber. Percent control was measured using Abbott's correction formula (W. S. Abbott, J. Econ. Entomol. 18 (1925), pp. 265-267) as follows:\nwhere X=No. of live insects on solvent check and Y=No. of live insects in treated chambers. In Table B6 the “Expected % Control” was calculated using the method described in Colby S. R., Weeds, 1967, 15, 20-22. Bioassay 7: Corn Earworm (Helicoverpa zea, HELIZE, “CEW”), Fall Armyworm (Spodoptera frugiperda, LAPHFR, “FAW”), Beet Armyworm (Spodoptera exigua, LAPHEG, “BAW”),and Soybean Looper (Chrysodeixis includens, PSEPIN, “SBL”)."}, "[4]": {"test_system": "Soybean Looper (Chrysodeixis includens, PSEPIN, SBL)", "test": "Bioassay 4: soybean looper, artificial diet, 128-cell tray", "details": "AI alone, 0.000004 wt %", "in_short": "as §1"}, "[5]": {"test_system": "Corn Earworm (Helicoverpa zea, HELIZE, CEW)", "test": "Bioassay 4: corn earworm, artificial diet, 128-cell tray", "details": "AI alone", "in_short": "as §1"}, "[6]": {"test_system": "Fall Armyworm (Spodoptera frugiperda, LAPHFR, FAW)", "test": "Bioassay 7: fall armyworm, artificial diet, 96 well plate", "description": "(§2) The test solutions were tested against CEW, FAW, BAW, and SBL using the following procedure: an artificial lepidopteran diet (Multispecies Lepidopteran Diet, Southland Products) was distributed in 96 well plate. Twenty μL of test solution was pipetted onto a cell in the bioassay plate. […] Each treatment was replicated 5 times for each species. Approximately five first instar CEW, FAW, BAW, or SBL larva were placed on top of the diet in each cell and was contained with a clear perforated adhesive lid. Test trays were held at approximately 25° C. and ambient relative humidity prior to grading. After five days, the number of cells where all the larvae were dead were recorded as 100% and averaged across all replicates; then the percent control was measured using Abbott's correction formula (W. S. Abbott, J. Econ. Entomol. 18 (1925), pp. 265-267) as follows:\n(§3) where X=No. of live larvae on solvent check and Y=No. of live larvae on treated diet. In Table 7 the “Expected % Control” was calculated using the method described in Colby S. R., Weeds, 1967, 15, 20-22. Bioassay 8: Western Corn Rootworm (Diabrotica virgifera virgifera, DIABVI, “WCR”)"}, "[7]": {"test_system": "Western Corn Rootworm (Diabrotica virgifera virgifera, DIABVI, WCR)", "test": "Bioassay 8: western corn rootworm, soil drench, corn root protection", "details": "AI alone, DIABVI, soil drench, 13 days", "description": "Corn seeds were planted in steam pasteurized soil filled greenhouse pots. Western corn rootworm Diabrotica virgifera virgifera eggs supplied from the Corteva Agriscience in Johnston, IA US, were suspended in a 0.08% agar solution added into the soil. Stock solutions of F1 and active ingredients were prepared at a concentration of either 250 or 500 ugai/10 mL for F1 and active ingredients at the ratios of (F1:AI) 1:0.004; 1:0.01; 1:0.02; 1:0.04; 1:0.08; 1:0.1; 1:0.15; 1:0.2; 1:0.4; 1:2; or 1:4, using a 1:1 solution of acetone:water as a diluent. A soil application of solutions were applied as a 10 mL drench over the soil. Plants were grown in the greenhouse for 13 days at 25 C after which the roots were removed from the soil, washed, and measured to determine the length of the median nodal roots. The measured lengths were compared to the infested and un-infested untreated checks to determine the mean percent control offered to protect the corn roots."}, "[8]": {"test_system": "Corn Earworm (Helicoverpa zea, HELIZE, CEW)", "test": "Bioassay 7: corn earworm, artificial diet, 96 well plate", "details": "AI alone at 0.4 wt %", "description": "as §2, §3"}, "[9]": {"test_system": "Beet Armyworm (Spodoptera exigua, LAPHEG, BAW)", "test": "Bioassay 7: beet armyworm, artificial diet, 96 well plate", "details": "AI alone at 0.4 wt %", "description": "as §2, §3"}, "[10]": {"test_system": "Soybean Looper (Chrysodeixis includens, PSEPIN, SBL)", "test": "Bioassay 7: soybean looper, artificial diet, 96 well plate", "details": "CL; AI alone at 0.4 wt %", "description": "as §2, §3"}}}
{"compound": "CCN(C(=O)CCS(C)(=O)=O)c1sc(-c2cccnc2)nc1Cl", "note": "[AI-1, N-(4-chloro-2-(pyridin-3-yl)thiazol-5-yl)-N-ethyl-3-(methylsulfonyl)propanamide]", "values": [{"measurement": "Average % Control AI", "setting": "[1]; 0.000004 wt %", "result": 0.0, "unit": "%"}, {"measurement": "Average % Control AI", "setting": "[2]; AI alone at 1:1 rate to F1 0.78 (10^-6 Wt %)", "result": 9.5, "unit": "%"}, {"measurement": "Average % Control AI", "setting": "[3]", "result": 0.0, "unit": "%"}, {"measurement": "Average % Control AI", "setting": "[4]", "result": 12.5, "unit": "%"}, {"measurement": "Average % Control AI", "setting": "[5]; 0.000004 wt %", "result": 0.0, "unit": "%"}, {"measurement": "Average % Control AI", "setting": "[5]; 0.00004 wt %", "result": 0.0, "unit": "%"}]}
{"compound": "CC1(C)[C@H](C(=O)O[C@H](C#N)c2cccc(Oc3ccccc3)c2)[C@@H]1C=C(Br)Br", "note": "[Deltamethrin]", "values": [{"measurement": "Average % Control AI", "setting": "[6]; AI alone at 0.004 wt %", "result": 0.0, "unit": "%"}, {"measurement": "Average % Control AI", "setting": "[7]; UgActive AI 1", "result": 17.0, "unit": "%"}]}
{"compound": "OC(Cc1ccccc1Cl)(Cn1nc[nH]c1=S)C1(Cl)CC1", "note": "(centres unmarked) [Prothioconazole]", "values": [{"measurement": "Average % Control AI", "setting": "[8]", "result": 0.0, "unit": "%"}, {"measurement": "Average % Control AI", "setting": "[7]; UgActive AI 20", "result": 0.0, "unit": "%"}]}
{"compound": "Cn1cc(C(=O)Nc2ccccc2C2CC2C2CC2)c(C(F)F)n1", "note": "(centres unmarked) [Sedaxane]", "values": [{"measurement": "Average % Control AI", "setting": "[6]; AI alone at 0.4 wt %", "result": 0.0, "unit": "%"}, {"measurement": "Average % Control AI", "setting": "[9]", "result": 0.0, "unit": "%"}, {"measurement": "Average % Control AI", "setting": "[10]", "result": 0.0, "unit": "%"}, {"measurement": "Average % Control AI", "setting": "[8]", "result": 0.0, "unit": "%"}, {"measurement": "Average % Control AI", "setting": "[7]; UgActive AI 10", "result": 0.0, "unit": "%"}]}
{"compound": "CC1(C)CCC(=Cc2ccc(Cl)cc2)C1(O)Cn1cncn1", "note": "(centres unmarked) [Titriconazole]", "values": [{"measurement": "Average % Control AI", "setting": "[9]", "result": 0.0, "unit": "%"}, {"measurement": "Average % Control AI", "setting": "[8]", "result": 0.0, "unit": "%"}, {"measurement": "Average % Control AI", "setting": "[7]; UgActive AI 100", "result": 0.0, "unit": "%"}]}
{"compound": "Abamectin", "values": [{"measurement": "Average % Control AI", "setting": "[1]; 0.00004 wt %", "result": 0.0, "unit": "%"}, {"measurement": "Average % Control AI", "setting": "[2]; AI alone at 1:1 rate to F1 3.125 (10^-6 Wt %)", "result": 31.0, "unit": "%"}, {"measurement": "Average % Control AI", "setting": "[3]", "result": 40.7, "unit": "%"}, {"measurement": "Average % Control AI", "setting": "[5]; 0.000004 wt %", "result": 0.0, "unit": "%"}, {"measurement": "Average % Control AI", "setting": "[5]; 0.00004 wt %", "result": 0.0, "unit": "%"}]}
{"compound": "Inpyrfluxam", "values": [{"measurement": "Average % Control AI", "setting": "[6]; AI alone at 0.4 wt %", "result": 0.0, "unit": "%"}, {"measurement": "Average % Control AI", "setting": "[10]", "result": 0.0, "unit": "%"}, {"measurement": "Average % Control AI", "setting": "[8]", "result": 12.5, "unit": "%"}, {"measurement": "Average % Control AI", "setting": "[7]; UgActive AI 1", "result": 0.0, "unit": "%"}]}
{"compound": "Spinetoram", "values": [{"measurement": "Average % Control AI", "setting": "[1]; 0.000004 wt %", "result": 0.0, "unit": "%"}, {"measurement": "Average % Control AI", "setting": "[3]", "result": 2.5, "unit": "%"}, {"measurement": "Average % Control AI", "setting": "[4]", "result": 25.0, "unit": "%"}, {"measurement": "Average % Control AI", "setting": "[5]; 0.000004 wt %", "result": 0.0, "unit": "%"}, {"measurement": "Average % Control AI", "setting": "[5]; 0.00004 wt %", "result": 25.0, "unit": "%"}]}
{"compound": "Thiabendazole", "values": [{"measurement": "Average % Control AI", "setting": "[9]", "result": 0.0, "unit": "%"}, {"measurement": "Average % Control AI", "setting": "[8]", "result": 0.0, "unit": "%"}, {"measurement": "Average % Control AI", "setting": "[7]; UgActive AI 50", "result": 16.8, "unit": "%"}]}
